Assay results as given in patent US6677429B1, “Echinocandin derivatives, preparation method and application as anti-fungal agents” (Aventis Pharma S.A., priority 1997, dated 2004).

Target: T1, Glucane Synthesis of Candida albicans (Candida albicans, UniProt O13428)
T1 construct: 22.5 µg of membrane proteins are incubated in a mixture of 2 Mm of 14C-UDP glucose; endogenous in cells
Experiment: Inhibition of the Glucane Synthesis of Candida albicans
Format: biochemical
Details: purified Candida albicans membranes, 14C-UDP glucose, 25° C. for 1 hour, radioactivity on filter counted
Protocol: A—Inhibition of the Glucane Synthesis of Candida albicans.
The membranes of Candida albicans are purified according to the process described by Tang and al Antimicrob. Agents Chemother 35, 99-103, 1991. 22.5 µg of membrane proteins are incubated in a mixture of 2 Mm of 14C-UDP glucose (specific activity=0.34mCi./mmol, 50 μg of α-amylase, 1Mm of dithiotreitol (DTT), 1Mm EDTA, 100 Mm NaF, 7 μM of GTP-γ-S, 1M of sucrose and 5 oMm OF Ttris-HCL (pH 7.8) in a volume of 100 μl. The medium is incubated at 25° C. for 1 hour and the reaction terminated by addition of TCA to a final concentration of 5%. The reaction medium is transferred onto a pre-humidified glass fibre filter. The filter is washed, dried and its radioactivity is counted.
Mulundocandin is used as positive control.
The control of the medium is carried out with the same quantity of DMSO 1%.

T1 sequence (O13428 1-1897): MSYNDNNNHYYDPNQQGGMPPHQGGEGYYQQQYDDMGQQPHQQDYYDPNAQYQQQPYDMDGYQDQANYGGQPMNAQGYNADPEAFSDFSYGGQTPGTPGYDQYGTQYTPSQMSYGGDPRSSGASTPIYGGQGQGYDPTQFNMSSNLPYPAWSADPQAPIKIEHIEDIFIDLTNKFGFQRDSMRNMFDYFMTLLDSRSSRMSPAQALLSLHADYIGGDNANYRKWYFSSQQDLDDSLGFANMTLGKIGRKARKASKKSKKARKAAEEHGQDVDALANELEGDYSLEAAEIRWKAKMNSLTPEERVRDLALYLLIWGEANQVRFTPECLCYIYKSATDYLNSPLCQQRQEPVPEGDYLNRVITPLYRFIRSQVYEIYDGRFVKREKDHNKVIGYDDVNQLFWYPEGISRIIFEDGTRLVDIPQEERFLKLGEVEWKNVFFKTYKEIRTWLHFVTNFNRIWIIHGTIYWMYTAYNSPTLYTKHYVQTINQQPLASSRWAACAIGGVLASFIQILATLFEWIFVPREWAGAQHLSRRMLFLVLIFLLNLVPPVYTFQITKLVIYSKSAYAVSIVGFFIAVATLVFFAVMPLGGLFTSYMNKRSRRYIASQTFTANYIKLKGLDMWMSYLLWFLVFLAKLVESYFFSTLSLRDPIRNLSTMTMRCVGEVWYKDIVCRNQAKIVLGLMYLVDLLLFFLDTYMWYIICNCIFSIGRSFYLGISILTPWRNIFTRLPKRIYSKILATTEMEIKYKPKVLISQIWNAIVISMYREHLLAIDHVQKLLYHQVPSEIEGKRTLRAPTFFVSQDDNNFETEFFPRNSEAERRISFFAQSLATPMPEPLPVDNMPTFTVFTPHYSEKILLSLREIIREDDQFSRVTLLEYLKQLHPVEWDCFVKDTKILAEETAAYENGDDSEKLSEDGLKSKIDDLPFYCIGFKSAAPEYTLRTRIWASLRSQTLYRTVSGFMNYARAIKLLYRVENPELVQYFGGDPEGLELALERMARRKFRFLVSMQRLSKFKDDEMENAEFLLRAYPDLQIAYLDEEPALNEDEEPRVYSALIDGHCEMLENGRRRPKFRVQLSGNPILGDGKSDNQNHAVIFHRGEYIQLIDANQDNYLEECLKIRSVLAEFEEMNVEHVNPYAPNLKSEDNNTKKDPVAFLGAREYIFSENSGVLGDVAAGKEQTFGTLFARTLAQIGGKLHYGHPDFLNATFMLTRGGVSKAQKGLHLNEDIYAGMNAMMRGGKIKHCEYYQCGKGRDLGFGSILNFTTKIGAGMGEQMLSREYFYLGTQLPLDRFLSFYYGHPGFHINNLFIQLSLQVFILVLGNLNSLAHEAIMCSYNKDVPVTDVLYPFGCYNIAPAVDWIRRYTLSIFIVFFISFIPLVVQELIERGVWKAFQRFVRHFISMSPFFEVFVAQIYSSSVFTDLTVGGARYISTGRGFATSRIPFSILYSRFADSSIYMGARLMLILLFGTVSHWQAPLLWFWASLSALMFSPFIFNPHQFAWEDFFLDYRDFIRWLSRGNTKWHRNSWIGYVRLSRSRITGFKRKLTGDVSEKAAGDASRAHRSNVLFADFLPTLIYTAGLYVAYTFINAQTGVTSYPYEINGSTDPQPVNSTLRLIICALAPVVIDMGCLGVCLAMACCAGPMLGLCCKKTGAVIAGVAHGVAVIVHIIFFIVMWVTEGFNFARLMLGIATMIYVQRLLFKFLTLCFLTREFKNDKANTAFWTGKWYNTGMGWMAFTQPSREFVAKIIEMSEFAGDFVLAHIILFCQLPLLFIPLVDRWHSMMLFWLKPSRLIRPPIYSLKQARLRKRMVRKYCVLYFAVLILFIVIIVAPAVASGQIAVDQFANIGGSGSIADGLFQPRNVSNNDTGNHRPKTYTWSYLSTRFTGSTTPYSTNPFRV
T1 sequence (O42825 whole entry partner): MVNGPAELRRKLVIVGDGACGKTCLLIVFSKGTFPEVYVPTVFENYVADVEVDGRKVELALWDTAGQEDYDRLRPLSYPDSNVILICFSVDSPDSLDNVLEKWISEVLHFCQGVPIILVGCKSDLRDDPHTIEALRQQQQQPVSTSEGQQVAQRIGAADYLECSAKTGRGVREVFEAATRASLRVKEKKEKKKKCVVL

Row | Compound | Inhibition of the Glucane Synthesis of Candida albicans (activity in this test)
1 | Trifluoroacetate of 1-[4-[(2-Aminoethyl)amino]-N2-(12-methyl-1-oxotetradecyl)-L-ornithine]4-[4-(4-hydroxyphenyl)-L-threonine]-5-L Serine Echinocandin B (Isomer A and Isomer B) [Example 9] | good activity
2 | (±) Trifluoroacetate of 1-[4-[(Aminoiminomethyl) hydrazono]-N2-(12-methyl-1-oxotetradecyl)-L-ornithine]4-[4-(4-hydroxyphenyl)-L-threonine]-5-L Serine Echinocandin B [Example 11] | good activity
3 | CCCCCCCCOc1ccc(-c2ccc(C(=O)NC3CC(NCCN)CNC(=O)C4C(O)C(C)CN4C(=O)C(CO)NC(=O)C(C(O)Cc4ccc(O)cc4)NC(=O)C4CC(O)CN4C(=O)C(C(C)O)NC3=O)cc2)cc1.O=C(O)C(F)(F)F (single isomer, unassigned; isomer a) [Example 14, Trifluoroacetate of 1-[4-[(2-Aminoethyl)amino]N2-[[4′-(octyloxy)[1.1′-biphenyl]4-yl]carbonyl]-L-ornithine]4-[4-(4-hydroxyphenyl)-L-threonine]-5-L Serine Echinocandin B (Isomer A)] | good activity
